Reference: US12060347B2 (BRISTOL-MYERS SQUIBB COMPANY, priority 2016, dated 2024)

Biological target: T1, human PAR4 (Homo sapiens, UniProt Q96RI0)
T1 construct: expressed in transfected cells; host or cells: HEK293 PAR4 Clone 1.2A (BMS Arctic ID 383940)
T1 sequence (Q96RI0 18-385): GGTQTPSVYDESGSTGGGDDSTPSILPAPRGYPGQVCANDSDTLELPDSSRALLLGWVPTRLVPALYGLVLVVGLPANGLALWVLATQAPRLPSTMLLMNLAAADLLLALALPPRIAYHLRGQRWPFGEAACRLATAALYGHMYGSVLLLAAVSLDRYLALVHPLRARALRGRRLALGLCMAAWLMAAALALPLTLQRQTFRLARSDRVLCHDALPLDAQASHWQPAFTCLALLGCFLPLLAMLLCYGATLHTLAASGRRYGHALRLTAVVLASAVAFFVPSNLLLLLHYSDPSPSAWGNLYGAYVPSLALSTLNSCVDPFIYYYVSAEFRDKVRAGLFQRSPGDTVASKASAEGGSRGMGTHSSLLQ
Assay: PAR4 FLIPR assay: antagonism of agonist-peptide-induced calcium mobilization in PAR4-expressing HEK293 cells
Type: cell-based
Conditions: H-Ala-Phe(4-F)-[…]NH2-induced intracellular calcium mobilization, 11-point curves

SMILES	IC50 [nM]
COc1cnc2c(-c3nc4cc(F)c(O[C@@H](C)[C@@H](C)OC(=O)Nc5ccc(OCCO)nc5)cc4s3)cc(C)cc2n1 [Example 571, (2R,3S)-3-((5-fluoro-2-(2-methoxy-7-methylquinoxalin-5-yl)benzo[d]thiazol-6-yl)oxy)butan-2-yl (6-(2-hydroxyethoxy)pyridin-3-yl)carbamate]	1
COc1cnc2c(-c3nc4cc(F)c(OC[C@@H](C)OC(=O)Nc5ccc(OCCO)nc5)cc4s3)cc(C)cc2n1 [Example 572, (R)-1-((5-fluoro-2-(2-methoxy-7-methylquinoxalin-5-yl)benzo[d]thiazol-6-yl)oxy)propan-2-yl (6-(2-hydroxyethoxy)pyridin-3-yl)carbamate]	0.9
COc1cnc2c(-c3nc4cc(F)c(O[C@@H](C)[C@@H](C)OC(=O)Nc5ccc(OCC(F)(F)CO)nc5)cc4s3)cc(C)cc2n1 [Example 573, (2R,3S)-3-((5-fluoro-2-(2-methoxy-7-methylquinoxalin-5-yl)benzo[d]thiazol-6-yl)oxy)butan-2-yl (6-(2,2-difluoro-3-hydroxypropoxy)pyridin-3-yl)carbamate]	1.6
COc1cnc2c(-c3nc4cc(F)c(OC[C@@H](C)OC(=O)Nc5ccc(OCC(F)(F)CO)nc5)cc4s3)cc(C)cc2n1 [Example 574, (R)-1-((5-fluoro-2-(2-methoxy-7-methylquinoxalin-5-yl)benzo[d]thiazol-6-yl)oxy)propan-2-yl (6-(2,2-difluoro-3-hydroxypropoxy)pyridin-3-yl)carbamate]	2
COc1cnc2c(-c3nc4cc(F)c(O[C@@H](C)[C@@H](C)OC(=O)Nc5cnc(OCC(C)(C)O)nc5)cc4s3)cc(C)cc2n1 [Example 575, (2R,3S)-3-((5-fluoro-2-(2-methoxy-7-methylquinoxalin-5-yl)benzo[d]thiazol-6-yl)oxy)butan-2-yl (2-(2-hydroxy-2-methylpropoxy)pyrimidin-5-yl)carbamate]	0.6
COc1cnc2c(-c3nc4cc(F)c(OC[C@@H](C)OC(=O)Nc5cnc(OCC(C)(C)O)nc5)cc4s3)cc(C)cc2n1 [Example 576, (R)-1-((5-fluoro-2-(2-methoxy-7-methylquinoxalin-5-yl)benzo[d]thiazol-6-yl)oxy)propan-2-yl (2-(2-hydroxy-2-methylpropoxy)pyrimidin-5-yl)carbamate]	1.2
COc1cnc2c(-c3nc4cc(F)c(O[C@@H](C)[C@@H](C)OC(=O)Nc5cnc(CC(C)(C)O)nc5)cc4s3)cc(C)cc2n1 [Example 577, (2R,3S)-3-((5-fluoro-2-(2-methoxy-7-methylquinoxalin-5-yl)benzo[d]thiazol-6-yl)oxy)butan-2-yl (2-(2-hydroxy-2-methylpropyl)pyrimidin-5-yl)carbamate]	1
COc1cnc2c(-c3nc4cc(F)c(O[C@@H](C)[C@@H](C)OC(=O)Nc5cnc(OC[C@@H](C)O)nc5)cc4s3)cc(C)cc2n1 [Example 578, (2R,3S)-3-((5-fluoro-2-(2-methoxy-7-methylquinoxalin-5-yl)benzo[d]thiazol-6-yl)oxy)butan-2-yl (2-((R)-2-hydroxypropoxy)pyrimidin-5-yl)carbamate]	5.8
COc1cnc2c(-c3nc4cc(F)c(O[C@@H](C)[C@@H](C)OC(=O)Nc5cnc(CCO)nc5)cc4s3)cc(Cl)cc2c1 [Example 579, (2R,3S)-3-((2-(6-chloro-3-methoxyquinolin-8-yl)-5-fluorobenzo[d]thiazol-6-yl)oxy)butan-2-yl (2-(2-hydroxyethyl)pyrimidin-5-yl)carbamate]	3.3
CCOc1cnc2c(-c3nc4cc(F)c(O[C@@H](C)[C@@H](C)OC(=O)Nc5cnc(OC[C@@H](C)O)nc5)cc4s3)cc(C)cc2n1 [Example 580, (2R,3S)-3-((2-(2-ethoxy-7-methylquinoxalin-5-yl)-5-fluorobenzo[d]thiazol-6-yl)oxy)butan-2-yl (2-((R)-2-hydroxypropoxy)pyrimidin-5-yl)carbamate]	1.1
COc1cnc2c(-c3nc4cc(F)c(O[C@@H](C)[C@@H](C)OC(=O)Nc5cnc(OC[C@H](C)O)nc5)cc4s3)cc(C)cc2n1 [Example 581, (2R,3S)-3-((5-fluoro-2-(2-methoxy-7-methylquinoxalin-5-yl)benzo[d]thiazol-6-yl)oxy)butan-2-yl (2-((S)-2-hydroxypropoxy)pyrimidin-5-yl)carbamate]	4.1
CCOc1cnc2c(-c3nc4cc(F)c(O[C@@H](C)[C@@H](C)OC(=O)Nc5cnc(OC[C@H](C)O)nc5)cc4s3)cc(C)cc2n1 [Example 582, (2R,3S)-3-((2-(2-ethoxy-7-methylquinoxalin-5-yl)-5-fluorobenzo[d]thiazol-6-yl)oxy)butan-2-yl (2-((S)-2-hydroxypropoxy)pyrimidin-5-yl)carbamate]	5.3
COc1cnc2c(-c3nc4c(Cl)c(F)c(OC[C@@H](C)OC(=O)Nc5cnc(C)nc5)cc4s3)cc(C)cc2n1 [Example 589, (R)-1-((4-chloro-5-fluoro-2-(2-methoxy-7-methylquinoxalin-5-yl)benzo[d]thiazol-6-yl)oxy)propan-2-yl (2-methylpyrimidin-5-yl)carbamate]	0.8
COc1cnc2c(-c3nc4c(Cl)c(F)c(OC[C@@H](C)OC(=O)Nc5cccnc5C)cc4s3)cc(C)cc2n1 [Example 590, (R)-1-((4-chloro-5-fluoro-2-(2-methoxy-7-methylquinoxalin-5-yl)benzo[d]thiazol-6-yl)oxy)propan-2-yl (2-methylpyridin-3-yl)carbamate]	25
COc1cnc2c(-c3nc4c(Cl)c(F)c(OC[C@@H](C)OC(=O)Nc5cncnc5)cc4s3)cc(C)cc2n1 [Example 591, (R)-1-((4-chloro-5-fluoro-2-(2-methoxy-7-methylquinoxalin-5-yl)benzo[d]thiazol-6-yl)oxy)propan-2-yl pyrimidin-5-ylcarbamate]	7
COc1cnc2c(-c3nc4cc(F)c(OC[C@@H](C)OC(=O)Nc5ccc(C)nc5)cc4s3)cc(C)cc2n1 [Example 592, (R)-1-((5-fluoro-2-(2-methoxy-7-methylquinoxalin-5-yl)benzo[d]thiazol-6-yl)oxy)propan-2-yl (6-methylpyridin-3-yl)carbamate]	0.7
COc1cnc2c(-c3nc4c(Cl)c(F)c(OC[C@@H](C)OC(=O)OCc5ccc(N)cn5)cc4s3)cc(C)cc2n1 [Example 596, (R)-(5-aminopyridin-2-yl)methyl (1-((4-chloro-5-fluoro-2-(2-methoxy-7-methylquinoxalin-5-yl)benzo[d]thiazol-6-yl)oxy)propan-2-yl) carbonate]	130
COc1cnc2c(-c3nc4cc(F)c(OC[C@@H](C)OC(=O)Nc5cnc(N(C)C)nc5)cc4s3)cc(C)cc2n1 [Example 597, (R)-1-((5-fluoro-2-(2-methoxy-7-methylquinoxalin-5-yl)benzo[d]thiazol-6-yl)oxy)propan-2-yl (2-(dimethylamino)pyrimidin-5-yl)carbamate]	15
COc1cnc2c(-c3nc4cc(F)c(O[C@@H](C)[C@@H](C)OC(=O)Nc5cnc(N(C)C)nc5)cc4s3)cc(C)cc2n1 [Example 598, (2R,3S)-3-((5-fluoro-2-(2-methoxy-7-methylquinoxalin-5-yl)benzo[d]thiazol-6-yl)oxy)butan-2-yl (2-(dimethylamino)pyrimidin-5-yl)carbamate]	3.7
COc1cnc2c(-c3nc4cc(F)c(O[C@@H](C)[C@@H](C)OC(=O)Nc5ccc(N(C)C)nc5)cc4s3)cc(C)cc2n1 [Example 599, (2R,3S)-3-((5-fluoro-2-(2-methoxy-7-methylquinoxalin-5-yl)benzo[d]thiazol-6-yl)oxy)butan-2-yl (6-(dimethylamino)pyridin-3-yl)carbamate]	5.6
COc1cnc2c(-c3nc4cc(F)c(O[C@@H](C)[C@@H](C)OC(=O)Nc5ccc(N6CCOC6=O)nc5)cc4s3)cc(C)cc2n1 [Example 600, (2R,3S)-3-((5-fluoro-2-(2-methoxy-7-methylquinoxalin-5-yl)benzo[d]thiazol-6-yl)oxy)butan-2-yl (6-(2-oxooxazolidin-3-yl)pyridin-3-yl)carbamate]	2.4
COc1cnc2c(-c3nc4cc(F)c(O[C@@H](C)[C@@H](C)OC(=O)Nc5ccc(NC(C)=O)nc5)cc4s3)cc(C)cc2n1 [Example 601, (2R,3S)-3-((5-fluoro-2-(2-methoxy-7-methylquinoxalin-5-yl)benzo[d]thiazol-6-yl)oxy)butan-2-yl (6-acetamidopyridin-3-yl)carbamate]	3.5
COc1cnc2c(-c3nc4cc(F)c(O[C@@H](C)[C@@H](C)OC(=O)Nc5ccc(N)nc5)cc4s3)cc(C)cc2n1 [Example 602, (2R,3S)-3-((5-fluoro-2-(2-methoxy-7-methylquinoxalin-5-yl)benzo[d]thiazol-6-yl)oxy)butan-2-yl (6-aminopyridin-3-yl)carbamate]	6.4
COc1cnc2c(-c3nc4cc(F)c(O[C@@H](C)[C@@H](C)OC(=O)Nc5ccc(N6CCOCC6)nc5)cc4s3)cc(C)cc2n1 [Example 603, (2R,3S)-3-((5-fluoro-2-(2-methoxy-7-methylquinoxalin-5-yl)benzo[d]thiazol-6-yl)oxy)butan-2-yl (6-morpholinopyridin-3-yl)carbamate]	2.1
COc1cnc2c(-c3nc4cc(F)c(O[C@@H](C)[C@@H](C)OC(=O)Nc5cnc(NC(=O)c6ccc(F)c(Cl)c6)nc5)cc4s3)cc(C)cc2n1 [Example 604, (2R,3S)-3-((5-fluoro-2-(2-methoxy-7-methylquinoxalin-5-yl)benzo[d]thiazol-6-yl)oxy)butan-2-yl (2-(3-chloro-4-fluorobenzamido)pyrimidin-5-yl)carbamate]	17
